Assay results taken from the supplement of paper PMC4862054.

Experiments:
Assay in all cases: normalised response (% of control), CellTiter-Glo; higher = more viable cells (100 = DMSO, 0 = benzethonium chloride kill control)
Conditions in all cases: incubation time: 72 h
MFM-223 = tested on: MFM-223
In short: (§1)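 CellTox Green fluorescence (485/520 nm) and, after 10 min at room temperature, CellTiter-Glo luminescence were read from breast cancer cell lines incubated 72 h in 384-well plates. Cells were seeded as 20 µl suspension onto compound at 5 concentrations in 10-fold steps over a 10,000-fold range chosen per compound. Each plate was normalised to 0.1 % DMSO (100) and a positive kill control (0). Values are normalised signals, one per concentration.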

MDA-MB-468 = tested on: MDA-MB-468
In short: as §1

BT-474 = tested on: BT-474
In short: as §1

CAL-120 = tested on: CAL-120
In short: as §1

DU-4475 = tested on: DU-4475
In short: as §1

SK-BR-3 = tested on: SK-BR-3
In short: as §1

MCF-10A = tested on: MCF-10A
In short: as §1

HCC1937 = tested on: HCC1937
In short: as §1

BT-549 = tested on: BT-549
In short: as §1

HCC1143 = tested on: HCC1143
In short: as §1

Hs578T = tested on: Hs578T
In short: as §1

MDA-MB-436 = tested on: MDA-MB-436
In short: as §1

MDA-MB-453 = tested on: MDA-MB-453
In short: as §1

CAL-51 = tested on: CAL-51
In short: as §1

HDQ-P1 = tested on: HDQ-P1
In short: as §1

CAL-148 = tested on: CAL-148
In short: as §1

HCC1599 = tested on: HCC1599
In short: as §1

MDA-MB-231 = tested on: MDA-MB-231
In short: as §1

CAL-85-1 = tested on: CAL-85-1
In short: as §1

Row | SMILES | normalised response (MFM-223) | normalised response (MDA-MB-468) | normalised response (BT-474) | normalised response (CAL-120) | normalised response (DU-4475) | normalised response (SK-BR-3) | normalised response (MCF-10A) | normalised response (HCC1937) | normalised response (BT-549) | normalised response (HCC1143) | normalised response (Hs578T) | normalised response (MDA-MB-436) | normalised response (MDA-MB-453) | normalised response (CAL-51) | normalised response (HDQ-P1) | normalised response (CAL-148) | normalised response (HCC1599) | normalised response (MDA-MB-231) | normalised response (CAL-85-1)
1 | CCCC(CCC)C(=O)O [Valproic acid] (100 nM) | 95.5% | 97.1% | 98.9% | 103% | 96.2% | 95.8% | 101% | 96.4% | 99.7% | 102% | 104% | 106% | 109% | 103% | 101% | 102% | 88.9% | 105% | 97.1%
2 | COC1=CC(c2cc3ccccc3[nH]2)=N/C1=C\c1[nH]c(C)cc1C [Obatoclax] (10 nM) | 91.4% | 98.9% | 95% | 98.8% | 100% | 90.2% | 94.7% | 94.6% | 96.9% | 95.5% | 99.4% | 91% | 104% | 121% | 92.6% | 89.9% | 92.2% | 94.6% | 93.6%
3 | FC(F)c1nc2ccccc2n1-c1nc(N2CCOCC2)nc(N2CCOCC2)n1 [ZSTK474] (10 nM) | 100% | 100% | 98.2% | 96.9% | 101% | – | 103% | 99.8% | 95.4% | 97.6% | 101% | 91.3% | 101% | 75.5% | 95% | 99.7% | 105% | 89.9% | 92.5%
4 | COc1ccc(C2=N[C@@H](c3ccc(Cl)cc3)[C@@H](c3ccc(Cl)cc3)N2C(=O)N2CCNC(=O)C2)c(OC(C)C)c1 [Nutlin-3] (10 nM) | 103% | 105% | 97.4% | 98.3% | 104% | – | 99.6% | 103% | 101% | 106% | 104% | 99.9% | 100% | 86.3% | 100% | 102% | 104% | 100% | 101%
5 | C#Cc1cccc(Nc2ncnc3cc(OC)c(OCCCCCCC(=O)NO)cc23)c1 [CUDC-101] (10 nM) | 100% | 101% | 98% | 99.8% | 99% | – | 97.5% | 104% | 101% | 99.9% | 96.4% | 105% | 103% | 84.9% | 95.8% | 87.5% | 93.9% | 98.1% | 92.6%
6 | CCOc1cc2ncc(C#N)c(Nc3ccc(OCc4ccccn4)c(Cl)c3)c2cc1NC(=O)/C=C/CN(C)C [Neratinib] (1 nM) | 106% | 101% | 100% | 96.9% | 105% | 73.3% | 109% | 96.7% | 96.3% | 101% | 104% | 97.1% | 99.5% | 80% | 93.8% | 107% | 99.2% | 107% | 94.5%
7 | O=c1[nH]cc(F)c(=O)[nH]1 [Fluorouracil] (10 nM) | 113% | 105% | 103% | 95.1% | 110% | – | 111% | 106% | 107% | 121% | 110% | 99.1% | 101% | 104% | 102% | 112% | 99.3% | 107% | 96.1%
8 | CN1CCN(c2ccc3nc(-c4c(N)c5c(F)cccc5[nH]c4=O)[nH]c3c2)CC1 [Dovitinib] (10 nM) | 95.1% | 97% | 102% | 95.6% | 97.8% | – | 98.3% | 101% | 91.8% | 102% | 97.6% | 98.1% | 88.4% | 77.6% | 96.1% | 94.9% | 102% | 98.6% | 91.5%
9 | C[C@@]1(C(=O)Nc2ccc(F)nc2)CCCN1c1nc(Nc2cc(C3CC3)n[nH]2)c2cccn2n1 (10 nM) | 83.4% | 86.8% | 90.7% | 91.2% | 99.5% | 71.5% | 67.5% | 95.4% | 88% | 97.5% | 92.4% | 92.5% | 92.8% | 99.3% | 85.4% | 87.3% | 96.1% | 88.1% | 91.6%
10 | Nc1nccc(-c2c(-c3ccc(F)cc3)ncn2C2CCCCC2)n1 (10 nM) | 110% | 96% | 106% | 102% | 107% | – | 111% | 100% | 90.7% | 110% | 107% | 95.7% | 106% | 104% | 102% | 116% | 86.8% | 100% | 106%
11 | CN(c1ccccc1CNc1nc(Nc2ccc3c(c2)CC(=O)N3)ncc1C(F)(F)F)S(C)(=O)=O (10 nM) | 91.4% | 84.8% | 92.1% | 94.4% | 94.8% | 111% | 100% | 97.5% | 97% | 99.5% | 92% | 92% | 96.6% | 102% | 101% | 101% | 91.4% | 87.9% | 94.6%
12 | COc1cc(Nc2ncc(F)c(Nc3ccc4c(n3)NC(=O)C(C)(C)O4)n2)cc(OC)c1OC [Tamatinib] (1 nM) | 108% | 101% | 98.5% | 102% | 106% | 112% | 111% | 98.5% | 101% | 108% | 111% | 105% | 121% | 105% | 101% | 102% | 114% | 107% | 97.9%
13 | CC(=O)O[C@H]1C(=O)[C@@]2(C)[C@H]([C@H](OC(=O)c3ccccc3)[C@]3(O)C[C@H](OC(=O)[C@H](O)[C@@H](NC(=O)c4ccccc4)c4ccccc4)C(C)=C1C3(C)C)[C@]1(OC(C)=O)CO[C@@H]1C[C@@H]2O [Paclitaxel] (1 nM) | 89.5% | 96.1% | 89.5% | 91.6% | 92.2% | – | 81.5% | 94.7% | 93.1% | 90.4% | 88.8% | 91.4% | 92.8% | 129% | 89.8% | 89.2% | 97.8% | 88.6% | 99.5%
14 | COc1cc(Nc2ncc(F)c(Nc3ccc4c(n3)NC(=O)C(C)(C)O4)n2)cc(OC)c1OC [Tamatinib] (10 nM) | 111% | 97.6% | 100% | 102% | 106% | 100% | 107% | 102% | 101% | 108% | 113% | 95.9% | 108% | 98.3% | 103% | 105% | 95.1% | 107% | 103%
15 | Nc1nccc(-c2c(-c3ccc(F)cc3)ncn2C2CCCCC2)n1 (1 nM) | 102% | 94.1% | 97.9% | 95.7% | 102% | 108% | 110% | 105% | 109% | 109% | 104% | 100% | 95.5% | 119% | 101% | 105% | 104% | 105% | 98.8%
16 | O=C(c1ccc(OCCN2CCCCC2)cc1)c1c(-c2ccc(O)cc2)sc2cc(O)ccc12 [Raloxifene] (10 nM) | 105% | 112% | 105% | 98.7% | 107% | 107% | 106% | 106% | 94.8% | 115% | 105% | 101% | 94.7% | 68.2% | 107% | 106% | 100% | 99.8% | 99%
17 | O=c1[nH]c(=O)n([C@H]2C[C@H](O)[C@@H](CO)O2)cc1F [Floxuridine] (10 nM) | 111% | 96.7% | 102% | 99.5% | 98.1% | – | 105% | 98.2% | 100% | 109% | 92.3% | 92.5% | 111% | 122% | 90.2% | 110% | 93.1% | 105% | 104%
18 | CC(C)C[C@H](NC(=O)[C@H](Cc1ccccc1)NC(=O)c1cnccn1)B(O)O [Bortezomib] (1 nM) | 103% | 95% | 99.2% | 102% | 101% | – | 102% | 98.8% | 98.2% | 94.2% | 109% | 90.8% | 97% | 77.6% | 101% | 102% | 108% | 104% | 98.8%
19 | COc1c(C)cnc(Cn2cnc3c(Cl)nc(N)nc32)c1C [BIIB021] (10 nM) | 102% | 102% | 101% | 99% | 102% | – | 96.6% | 105% | 99.6% | 108% | 97.6% | 101% | 102% | 116% | 97.5% | 94.6% | 109% | 99.3% | 96.9%
20 | C[C@@H]1CCN(C(=O)CC#N)C[C@@H]1N(C)c1ncnc2[nH]ccc12 [Tofacitinib] (5 nM) | 101% | 104% | 114% | 95.7% | 110% | – | 108% | 96.3% | 97.2% | 105% | 103% | 104% | 120% | 122% | 103% | 111% | 115% | 103% | 112%
21 | COc1cccc2c1C(=O)c1c(O)c3c(c(O)c1C2=O)C[C@@](O)(C(C)=O)C[C@@H]3O[C@H]1C[C@H](N)[C@H](O)[C@H](C)O1 [Daunorubicin] (1 nM) | 108% | 105% | 106% | 96.9% | 107% | – | 107% | 99.9% | 94.2% | 109% | 112% | 101% | 108% | 122% | 104% | 109% | 109% | 105% | 96.2%
